Tested on: peach aphid (Myzus persicae)
Assay: Insecticidal test against peach aphid, infested Chinese cabbage leaves sprayed
Type: in vivo
Conditions: peach aphid (Myzus persicae) on Chinese cabbage leaves, sprayed with 500 ppm composition unless otherwise stated, mortality assessed after 3 days
In short: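 Aphid-infested Chinese cabbage leaves were sprayed with compound at 500 ppm unless otherwise stated, formulated in acetone/ethanol diluted with water containing 0.05% Synperonic NP8. Mortality was assessed after 3 days.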

Structure (SMILES)	Score (grading of mortality)
C=CCc1c(F)c(F)c(CN2C3CCC2CC(C#N)(c2cncc(Cl)c2)C3)c(F)c1F (stereo not drawn) [Compound 234]	A (A indicates 80-100% mortality)
CC(C)N(C(=O)N1C2CCC1CC(C#N)(c1cncc(Cl)c1)C2)C(C)C (stereo not drawn) [Compound 150, exo-3-(5-chloropyrid-3-yl)-endo-3-cyano-8-(diisopropylcarbamyl)-8-azabicyclo[3.2.1]octane]	A (A indicates 80-100% mortality)
CS(=O)(=O)N1C2CCC1CC(C#N)(c1cccnc1)C2 (stereo not drawn) [Compound 45]	C (C indicates less than 40% mortality)
CCOC(=O)c1cncc(C2(C#N)CC3CCC(C2)N3)c1 (stereo not drawn) [Compound 225]	A (A indicates 80-100% mortality)
N#CC1(c2cncc(Cl)c2)CC2CCC(C1)N2Cc1cccc(OC(F)(F)F)c1 (stereo not drawn) [Compound 235]	A (A indicates 80-100% mortality)
COc1ccc(C2(C#N)CC3CCC(C2)N3Cc2ccccc2)cc1 (single isomer, unassigned) [Compound 7]	C (C indicates less than 40% mortality)
CN1C2CCC1CC(C#N)(c1cccnc1)C2 (stereo not drawn) [Compound 33, exo-3-(pyrid-3-yl)-endo-3-cyano-8-methyl-8-azabicyclo[3.2.1]octane]	A (A indicates 80-100% mortality)
CN1C2CCC1CC(C#N)(c1cncc(-n3cccc3)c1)C2 (stereo not drawn) [Compound 189, exo-3-(5-(pyrrol-1-yl)pyrid-3-yl)-endo-3-cyano-8-methyl-8-azabicyclo[3.2.1]octane]	A (A indicates 80-100% mortality)
N#CC1(c2cncc(Cl)n2)CC2CCC(C1)N2Cc1cccc(Cl)c1 (stereo not drawn) [Compound 300]	A (A indicates 80-100% mortality)
CC(C)OC(=O)N1C2CCC1CC(C#N)(c1cncc(Cl)c1)C2 (stereo not drawn) [Compound 111]	A (A indicates 80-100% mortality)
COc1cncc(C2(C#N)CC3CCC(C2)N3CC(F)(F)F)c1 (stereo not drawn) [Compound 161]	A (A indicates 80-100% mortality)
CCOC(=O)N1C2CCC1CC(C#N)(c1cncc(Cl)c1)C2 (stereo not drawn) [Compound 84]	A (A indicates 80-100% mortality)
N#CC1(c2cncc(Cl)c2)CC2CCC(C1)N2c1ccc(F)cc1 (stereo not drawn) [Compound 129]	A (A indicates 80-100% mortality)
CN1C2CCC1CC(C#N)(c1ccc(Cl)nc1)C2 (stereo not drawn) [Compound 46, exo-3-(6-chloropyrid-3-yl)-endo-3-cyano-8-methyl-8-azabicyclo[3.2.1]octane]	A (A indicates 80-100% mortality)
C=COC(=O)N1C2CCC1CC(C#N)(c1cncc(OC)c1)C2 (stereo not drawn) [Compound 171]	A (A indicates 80-100% mortality)
CN1C2CCC1CC(C#N)(c1cncc(I)c1)C2 (stereo not drawn) [Compound 147, exo-3-(5-iodopyrid-3-yl)-endo-3-cyano-8-methyl-8-azabicyclo[3.2.1]octane]	A (A indicates 80-100% mortality)
CON1C2CCC1CC(C#N)(c1cncc(Cl)c1)C2 (stereo not drawn) [Compound 296, exo-3-(5-chloropyrid-3-yl)-endo-3-cyano-8-methoxy-8-azabicyclo[3.2.1]octane]	A (A indicates 80-100% mortality)
N#CC1(c2cncc(Cl)c2)CC2CCC(C1)N2 (stereo not drawn) [Compound 70, exo-3-(5-chloropyrid-3-yl)-endo-3-cyano-8-azabicyclo[3.2.1]octane]	A (A indicates 80-100% mortality)
C=CCN1C2CCC1CC(C#N)(c1cncc(Cl)c1)C2 (stereo not drawn) [Compound 76, exo-3-(5-chloropyrid-3-yl)-endo-3-cyano-8-allyl-8-azabicyclo[3.2.1]octane]	A (A indicates 80-100% mortality)
CC(O)CN1C2CCC1CC(C#N)(c1cncc(Cl)c1)C2 (stereo not drawn) [Compound 286]	A (A indicates 80-100% mortality)
N#CC1(c2cncc(Cl)c2)CC2CCC(C1)N2CC(F)(F)C(F)(F)F (stereo not drawn) [Compound 130]	A (A indicates 80-100% mortality)
N#CC1(c2cncc(Cl)c2)CC2CCC(C1)N2CC1CCCCO1 (stereo not drawn) [Compound 289]	A (A indicates 80-100% mortality)
N#CC1(c2ccnc(Cl)n2)CC2CCC(C1)N2CC(F)(F)F (stereo not drawn) [Compound 297]	A (A indicates 80-100% mortality)
N#CC1(c2cncc(Cl)c2)CC2CCC(C1)N2Cc1ccc(F)cc1F (stereo not drawn) [Compound 252]	A (A indicates 80-100% mortality)
N#CC1(c2cncc(Cl)c2)CC2CCC(C1)N2c1ccnc(Cl)n1 (stereo not drawn) [Compound 187]	C (C indicates less than 40% mortality)
N#CC1(c2cncc(Cl)c2)CC2CCC(C1)N2C(=O)c1ccc(Cl)cc1 (stereo not drawn) [Compound 97]	C (C indicates less than 40% mortality)
CN1C2CCC1CC(C#N)(c1ccncc1)C2 (stereo not drawn) [Compound 67, exo-3-(pyrid-4-yl)-endo-3-cyano-8-methyl-8-azabicyclo[3.2.1]octane]	A (A indicates 80-100% mortality)

Structure (SMILES)	Score (grading of mortality)
COC(=O)c1cccc(CN2C3CCC2CC(C#N)(c2cncc(Cl)c2)C3)c1 (stereo not drawn) [Compound 241]	A (A indicates 80-100% mortality)
C#CCN1C2CCC1CC(C#N)(c1cncc(Cl)c1)C2 (stereo not drawn) [Compound 75]	A (A indicates 80-100% mortality)
N#CC1(c2cncc(Cl)c2)CC2CCC(C1)N2C(=O)OCCCl (stereo not drawn) [Compound 92]	A (A indicates 80-100% mortality)
CCN1C2CCC1CC(C#N)(c1cncc(Cl)c1)C2 (stereo not drawn) [Compound 78]	A (A indicates 80-100% mortality)
N#CC1(c2cncc(Cl)c2)CC2CCC(C1)N2C(=O)c1ccc(F)cc1 (stereo not drawn) [Compound 98]	A (A indicates 80-100% mortality)
CC(C)CC(C)(C)CCN1C2CCC1CC(C#N)(c1cncc(Cl)c1)C2 (stereo not drawn) [Compound 180]	A (A indicates 80-100% mortality)
COCCN1C2CCC1CC(C#N)(c1cncc(Cl)c1)C2 (stereo not drawn) [Compound 288]	A (A indicates 80-100% mortality)
CN1C2CCC1CC(C#N)(c1cncc(Br)c1)C2 (stereo not drawn) [Compound 68, exo-3-(5-bromopyrid-3-yl)-endo-3-cyano-8-methyl-8-azabicyclo[3.2.1]octane]	A (A indicates 80-100% mortality)
C=COC(=O)N1[C@@H]2CC[C@H]1C[C@](C#N)(c1cncc(Cl)c1)C2 [Compound 69, exo-3-(5-chloropyrid-3-yl)-endo-3-cyano-8-(vinyloxycarbonyl)-8-azabicyclo[3.2.1]octane]	A (A indicates 80-100% mortality)
N#CC1(c2cncc(Cl)c2)CC2CCC(C1)N2Cc1cccc(F)c1 (stereo not drawn) [Compound 253]	A (A indicates 80-100% mortality)
CCCCCCN1C2CCC1CC(C#N)(c1cncc(Cl)c1)C2 (stereo not drawn) [Compound 81, exo-3-(5-chloropyrid-3-yl)-endo-3-cyano-8-(n-hexyl)-8-azabicyclo[3.2.1]octane]	A (A indicates 80-100% mortality)
C=C(OCC)c1cncc(C2(C#N)CC3CCC(C2)N3C)c1 (stereo not drawn) [Compound 195, exo-3-(5-(1-ethoxyvinyl)pyrid-3-yl)-endo-3-cyano-8-methyl-8-azabicyclo[3.2.1]octane]	A (A indicates 80-100% mortality)
N#CC1(c2cncc(Cl)c2)CC2CCC(C1)N2Cc1ccc(F)cc1 (stereo not drawn) [Compound 254]	A (A indicates 80-100% mortality)
C=COC(=O)N1C2CCC1CC(C#N)(c1cccnc1)C2 (stereo not drawn) [Compound 185, exo-3-(Pyrid-3-yl)-endo-3-cyano-8-(vinyloxycarbonyl)-8-azabicyclo[3.2.1]octane]	A (A indicates 80-100% mortality)
N#CC1(c2cncc(-c3ccccc3)c2)CC2CCC(C1)N2 (stereo not drawn) [Compound 220, exo-3-(5-phenylpyrid-3-yl)-endo-3-cyano-8-azabicyclo[3.2.1]octane]	A (A indicates 80-100% mortality)
N#CCCN1C2CCC1CC(C#N)(c1cc(F)cc(F)c1)C2 (stereo not drawn) [Compound 26]	B (B indicates 40-79% mortality)
CC(C=O)(c1ccccc1)N1C2CCC1CC(C#N)(c1cncc(Cl)c1)C2 (stereo not drawn) [Compound 159, exo-3-(5-chloropyrid-3-yl)-endo-3-cyano-8-(2-phenyl-3-oxo-prop-2-yl)-8-azabicyclo[3.2.1]octane]	A (A indicates 80-100% mortality)
CC(C)CN1C2CCC1CC(C#N)(c1cncc(Br)c1)C2 (stereo not drawn) [Compound 210]	A (A indicates 80-100% mortality)
N#CC1(c2cncc(Cl)c2)CC2CCC(C1)N2Cc1c(F)cccc1[N+](=O)[O-] (stereo not drawn) [Compound 273]	A (A indicates 80-100% mortality)
CN1C2CCC1CC(C#N)(c1cnccn1)C2 (stereo not drawn) [Compound 62, exo-3-(pyrazin-2-yl)-endo-3-cyano-8-methyl-8-azabicyclo[3.2.1]octane]	A (A indicates 80-100% mortality)
CCOC(=O)N1C2CCC1CC(C#N)(c1cncc(Br)c1)C2 (stereo not drawn) [Compound 208]	A (A indicates 80-100% mortality)
C=COC(=O)N1C2CCC1CC(C#N)(c1cncc(C(F)(F)F)c1)C2 (stereo not drawn) [Compound 183]	A (A indicates 80-100% mortality)
N#CC1(c2cncc(Cl)c2)CC2CCC(C1)N2Cc1c(F)cccc1F (stereo not drawn) [Compound 228]	A (A indicates 80-100% mortality)
N#CC1(c2ccccn2)CC2CCC(C1)N2CCF (stereo not drawn) [Compound 120]	A (A indicates 80-100% mortality)
N#CCN1C2CCC1CC(C#N)(c1cccnc1)C2 (stereo not drawn) [Compound 49]	A (A indicates 80-100% mortality)
N#CC1(c2cc(F)cc(F)c2)CC2CCC(C1)N2 (stereo not drawn) [Compound 9]	A (A indicates 80-100% mortality)
N#CC1(c2ccccc2)CC2CCC(C1)N2Cc1ccccc1 (stereo not drawn) [Compound 8, 3-phenyl-3-cyano-8-benzyl-8-azabicyclo[3.2.1]octane]	A (A indicates 80-100% mortality)
